Assay results published in US20110281802A1, “COMPOSITION FOR TREATMENT AND PREVENTION OF HAIR LOSS AND PREMATURE GRAYING OF HAIR” (Immudiagnostik AG, priority 2007, published 2011).

Test system: Prolactin
Assay: Immunohistochemical staining of treated hair follicles for prolactin (assay #6)
Assay type: cell-based, human
Conditions: 10 pg/mL and 100 pg/mL, few hair follicles, very preliminary
Protocol: The staining was performed according to the following protocol:
A. Prolactin: Pre-treatment with 0.5% Triton X (Fluka, Sigma Aldrich, Taufkirchen, Germany; CatNo 93420) in TBS for 10 minutes at room temperature, three washings in TBS for five minutes each, treatment with 0.6% H2O2 in methanol three times for 15 minutes, washes in TBS. Pre-incubation with 10% rabbit serum (Dako Cytomation, CatNo X0902) in TBS with 3% BSA for 20 minutes, incubation with primary antibody (goat anti-human prolactin, Santa Cruz Biotechnology, Inc., Santa Cruz, Calif., USA; CatNo SC-7805), dilution 1:100 in TBS+2% rabbit serum (Dako Cytomation, CatNo X0902) overnight at 4° C. Thereafter washes in TBS. Incubation with secondary antibody (rabbit anti-goat-biotinylated, DAKO Cytomation, CatNo E0466) diluted to 1:200 with 2% rabbit serum in TBS for 45 minutes at room temperature. Treatment with Avidin Biotin Complex-alkaline phosphatase (Vector Laboratories, Burlingame, Calif., USA; CatNo AK-5000) for 30 minutes, then washing in TBS. Thereafter treatment with Fast Red Tablets (Sigma-Aldrich, CatNo F4648-50SET) for 6 minutes. Counterstaining with Mayer's Haemalaun (Chroma Muenster, CatNo 2E038) and mounting with Aquamount (DAKO Cytomation, CatNo S3025).
In both assays human pituitary gland was set as positive control and negative control were hair follicles treated without the primary antibody.

thymulin
Immunoreactivity for Prolactin in treated hair follicles (in words): some additional staining in the IRS
